Measured values as given in paper PMC9545474, “Anticancer Water‐Soluble Organoruthenium Complexes: Synthesis and Preclinical Evaluation” (Chembiochem, 2022).

Columns and labels:
[1] = tested on: H460 non-small-cell lung cancer cells; assay: 24-hour MTT chemosensitivity assay with 72-hour recovery, H460; format: cell-based; settings: for IC50: 24 h exposure, 72 h recovery, MTT, read-out: IC50 values ±SD, H460; for Selectivity index (SI), H460: mean IC50 PNT2 / mean IC50 H460
Procedure: Chemosensitivity studies were undertaken using a 24‐hour MTT assay, with a 72‐hour recovery period. The IC50 values were determined against ovarian A2780 (cisplatin‐sensitive) and A2780cisR (cisplatin‐resistant) cancer cell lines, non‐small‐cell lung H460 cancer cell line, and normal prostate PNT2 cell line, exposed to each of compounds 4–8, cisplatin or the phosphine ligands (Table 1 and S4, Figures S29–S31). […] This is unusual but can be related to solubility issues not visible for the naked eye and thus hindering its activity in cells. […] When tested on their own, the phosphine ligands are not active below 100 μM for all four cell lines. […] This therefore prevents comparison with the well‐known RAPTA family, and more especially with RAPTA−C which bears a PTA ligand and a p‐cym ligand, making this complex relatively similar in terms of geometry with complex 4.[21] […] This confirms the interest of the sulfur coordinating atom in terms of cytotoxicity for organoruthenium complexes.[23]
Chemosensitivity assay: In vitro chemosensitivity tests were performed against A2780, A2780cisR, PNT2 and H460 cells. Cells were routinely maintained as monolayer cultures in RPMI 1640 medium supplemented with 10 % foetal calf serum, penicillin (100 I.U./mL) and streptomycin (100 μg/mL), sodium pyruvate (1 mM) and L‐glutamine (2 mM). For chemosensitivity studies, cells were seeded in 96‐well plates at a concentration of 7.5×10^3 cells per well and the plates were incubated for 24 h at 37 °C and a 5 % CO2 humidified atmosphere prior to drug exposure.
Complexes were dissolved in either DMSO (complexes 4, 5, and 8) or PBS (complexes 6 and 7) to provide stock solutions which were further diluted with media to provide a range of final concentrations. Drug‐media solutions were added to cells (the final concentration of DMSO was less than 1 % (v/v) in all cases) and incubated for 24 h at 37 °C and a 5 % CO2 humidified atmosphere. The drug‐media solution was removed from the wells and the cells were washed with PBS (100 μL, twice) and 200 μL of complete fresh media were added to each well. The plates were further incubated for 72 h at 37 °C and a 5 % CO2 humidified atmosphere to allow for a period of recovery. 3‐(4,5‐dimethylthiazol‐2‐yl)‐2,5‐diphenyltetrazolium bromide (MTT) (40 μL, 2.5 mg/mL) was added to each well and plates were incubated for 2 h. All solutions were then removed and 100 μL of DMSO was added to each well in order to dissolve the purple formazan crystals. A Thermo Scientific Multiskan EX microplate photometer was used to measure the absorbance in each well at 570 nm. Cell survival was determined as the absorbance of treated cells divided by the absorbance of controls and expressed as a percentage. The IC50 values were determined from plots of % survival against drug concentration. Each experiment was repeated in triplicates of triplicates and a mean value was obtained and stated as IC50 (μM) ± SD. Untreated cells were used as a negative control, and cells treated with cisplatin were used as a positive control.

[2] = tested on: A2780cisR subcutaneous tumour xenograft; assay: Efficacy in A2780cisR (A2780/cis) subcutaneous tumour xenograft model; format: in vivo, Female Balb/c immunodeficient nude mice; settings: 6 at 50 mg/kg, 8 at 15 mg/kg, i.p.; for Median time to RTV2 / Maximum % weight loss / Growth delay: A2780/cis xenograft, days 0–4; for Maximum % weight loss: day in brackets; for Growth delay: versus untreated
Procedure: (§1) Compounds: All compounds were provided in powdered form and stored in the −20 °C freezer. They were formulated just before use. […] The drugs were then administered within 10 minutes of initial dilution.
(§2) Animals: Female Balb/c immunodeficient nude mice aged 6–12 weeks were used (Envigo, Blackthorn, UK). Mice were kept in cages housed in isolation cabinets in an air‐conditioned room with regular alternating cycles of light and darkness. They received Teklad 2018 diet (Envigo, Blackthorn, UK) and water ad libitum. All animal procedures were carried out under a project licence issued by the UK Home Office and UK National Cancer Research Institute Guidelines for the Welfare of Animals were followed throughout.
S.c. xenograft tumours: A2780/WT and A2780/cis tumours were excised from a donor animal, placed in sterile physiological saline containing antibiotics and cut into small fragments of approximately 5 mm^3. Under brief general inhalation anaesthesia, fragments were implanted in the flank of each mouse using a trocar. Once the tumours could accurately be measured by callipers, the mice were allocated into groups (control or treated) by restricted randomisation to keep group mean tumour size variation to a minimum, with 3 animals set up per group.
Evaluation of efficacy in s.c. xenograft models: The compounds were prepared fresh on the days of treatment as described above and administered i. p. to mice on days 0–4 in a volume of 0.1 mL per 10 g of body weight. […] The negative control group was untreated.
The effects of therapy were assessed by frequent monitoring growth of the tumours and body weight. Two‐dimensional calliper measurements of the tumours were taken, and volumes calculated using the formula (a^2×b)/2, where a is the smaller and b the larger diameter of the tumour. Tumour volume was then normalised to the respective volume on day 0, and semi‐log plots of relative tumour volume (RTV) versus time were made. Mann‐Whitney U tests were performed to determine the statistical significance of any differences in growth rate (based on tumour volume doubling time, RTV2) between control and treated groups.

[3] = mice
Procedure: as §1, §2
(1 picture or pasted object on this page, not shown here)

[4] = Reactivity with NAC by NMR; format: physicochemical; settings: NMR studies over 24 hours

Molecule	IC50 [1]	Selectivity index (SI), H460 [1]	Median time to RTV2 [2]	Maximum % weight loss [2]	Growth delay [2]	Toxicity in xenograft study ([2]; A2780cisR xenograft)	maximum tolerated dose (MTD) ([3]; i.p. daily, monitored for a further two weeks)	Toxicity in MTD run ([3]; i.p., 15mg/kg in 20 % DMSO/arachis oil, full run)	Reaction with NAC [4]
Cc1ccc(C(C)C)cc1.N#CC1=C(C#N)[S][Ru-]([P+](c2ccccc2)(c2ccccc2)c2ccccc2)[S]1 [Complex 8, (η^6‐p‐cymene)(PPh3)Ru(Mnt)]	5.7 ± 0.8 µM	0.42	10.0 days	2%	7.2 days	No toxicity was observed	15 mg/kg	no evidence of toxicity was seen	
(η^6‐p‐cymene)(TPPTS)Ru(Mnt) [Complex 6]	2 ± 0.2 µM	0.80	3.0 days	2%	0.2 days				do not react together
